Series [1] has as its target T1, KDM4A (Homo sapiens, UniProt O75164).
T1 construct: encoding human KDM4A residues 1–350 with a GST-6xHis tag at the N-terminal; GST-6xHis (followed by TEV cleavage site) (N, cleaved yes); made in house; host or cells: T7 Express E. coli
T1 sequence (O75164 1-350): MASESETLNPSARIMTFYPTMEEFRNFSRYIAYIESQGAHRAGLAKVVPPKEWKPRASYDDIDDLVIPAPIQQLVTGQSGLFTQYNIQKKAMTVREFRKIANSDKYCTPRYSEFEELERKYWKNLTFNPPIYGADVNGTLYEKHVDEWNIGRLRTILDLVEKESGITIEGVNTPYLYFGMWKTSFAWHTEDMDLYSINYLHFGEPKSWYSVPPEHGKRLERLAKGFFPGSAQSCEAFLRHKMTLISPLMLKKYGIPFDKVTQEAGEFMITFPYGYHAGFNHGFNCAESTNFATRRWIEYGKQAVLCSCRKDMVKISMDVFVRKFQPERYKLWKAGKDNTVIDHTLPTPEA
Kind of series: Enzymatic HTRF-based assay, inhibition of H3K9me3 peptide demethylation. It is filed as biochemical. Conditions: for inhibition at 50 µM: read-out: Inhibition at 50 μM; for IC50: HTRF, H3K9me3 peptide, 0.5 µM 2-OG, 400 nM KDM4A, ± standard error of fit. As to the method: The plasmid pGEX4T2-JMJD2A encoding human KDM4A residues 1–350 with a GST-6xHis tag at the N-terminal, followed by Tobacco Etch Virus (TEV) cleavage site, was used for protein expression. The plasmid was used to transform T7 Express E.coli competent cells. Cells were grown in LB media supplemented with ampicillin (100 µg/mL) at 37 °C until the OD600 reached a value around 0.4. Flasks were then cooled down and, after induction by 0.2 mM ITPG at OD600 = 0.8, bacteria were grown at 18 °C for 20 h. After centrifugation at 8000 g (20 min at 4 °C) the obtained pellets were suspended in lysis buffer (20 mM TRIS pH = 8, 0.3 M NaCl, 10 mM imidazole, 5% glycerol, 1 mM DTT, 10 µg/mL DNAse, 0.5 mg/mL lysozyme, 0.5 mM PMSF, 2 cOmplete™ EDTA-free Protease Inhibitor Cocktail, 5 mM MgCl2) and incubated at 25 °C for 1 h. Sonication (1 s ON and 1 s OFF) on ice for 7 min at 48% amplitude was performed. 0.1% Triton X-100 was added and the lysate was incubated on ice for 15 min in agitation. Soluble and insoluble phase were separated by centrifugation at 15,000 rpm, 4 °C for 30 min. Soluble phase was filtered using a 0.45 um syringe filter and directly loaded in 2 × 5 mL His-trap FF Crude column (GE Healthcare) previously equilibrated with loading buffer (20 mM TRIS, pH = 8, 0.3 M NaCl, 1 mM DTT, 10 mM imidazole, 5% glycerol). A linear gradient elution by 500 mM imidazole was done to elute bound KDM4A. In order to remove the GST-6xHis tag and imidazole excess, the eluted KDM4A was incubated with His-tagged TEV-protease (molar ratio 20:1) and dialyzed against 20 mM TRIS, pH = pH 7.5, 0.3 M NaCl, 1 mM DTT overnight at 4 °C. Tag free KDM4A was recovered reloading the dialyzed sample onto a His-trap column and collecting the flow-through. Size exclusion chromatography was used as final polishing step using a Superdex 200 grade 16/600 pg column (GE Healthcare) pre-equilibrated with 10 mM Hepes, pH = 7.5, 150 mM NaCl, 5% glycerol, 0.5 mM TCEP. Fractions containing KDM4A were pooled and concentrated to 50–100 µM, flash frozen in liquid nitrogen, and stored at − 80 °C. Protein concentration was measured by using the predicted molar extinction coefficient (ε280 = 73,800 M^−1 cm^−1), and the purity verified by SDS-PAGE resulted > 95%.
Enzymatic HTRF-based assay was run in two steps: enzymatic reaction and detection. Optimal conditions for both steps were determined by considering: plate format, time and temperature of incubation, substrate and DMSO concentrations.
Dimethyl sulfoxide (DMSO, Sigma-Aldrich D58791) final concentration was 1%. The reaction mixture was incubated for 2 h at 20 °C in ½ area 96 well plates (ref. 6002290 m, Perkin Elmer).
For the detection step, 40 μl of HTRF reagents, H3K9 me2-Eu(K) Ab (Cisbio Bioassays, 61KB2KAE) and Streptavidin XL-665 (Cisbio Bioassays, 610SAXLA), prepared in detection buffer following manufacturer’s instruction (Cisbio Assays, 62SDBRDD), were added to each well and incubated o/n at 20 °C. Fluorescence was measured with a TECAN Spark reader (Männedorf, Switzerland), by setting excitation wavelength at 320 nm and emission wavelength at 620 and 665 nm.
Automation was performed using Bravo (Agilent) liquid handling system. Validation of the assay was performed following NIH guidelines. 2,4-pyridinedicarboxylic acid monohydrate (2,4-PDCA, Sigma Aldrich P63395) was used as positive control at Imax 10 µM, and Z’ was determined on 9 independent experiments always giving a value > 0.5. The following reference compounds were used as internal controls in the screening plates: 2,4-Pyridinedicarboxylic Acid, 8-hydroxyquinoline-5-carboxylic acid, pyrido[3,4-d]pyrimidin-4(3H)-one, 3-(ethylsulfonyl)-N-(4-(pyridin-2-yl)thiazol-2-yl)benzamide, 3-(ethylsulfonyl)-N-(4-(pyridin-2-yl)thiazol-2-yl)benzamide, 3-(methylsulfonyl)-N-(4-(pyridin-2-yl)thiazol-2-yl)benzamide.
In general terms: TR-FRET usually uses a lanthanide donor and a delayed reading to cut background.

The target in series [2] is T1, KDM4A. In words: Bio-layer interferometry (BLI) binding to biotinylated KDM4A. As to conditions: for Kd: BLI, 1:1 Langmuir global fit, 25 °C, 5% DMSO; for LE: ligand efficiency score; for LE / LLE: method of ref 58; for LLE: lipophilic ligand efficiency score. The source says:
(§1) Bio-layer interferometry (BLI) was then used to determine the equilibrium dissociation constant (KD) for the binding event. QC6352 inhibitor [52] and N-[(2-Chloro-6-fluorophenyl)methyl]-2-(2,5-dioxo-4-phenyl-4-propylimidazolidin-1-yl)-N-methylacetamide were used as positive and negative control, respectively. […] Binding was also confirmed by Saturation-Transfer Difference (STD) NMR experiments (Additional file 1: Fig. S5).
Bio-layer Interferometry experiments Bio-layer Interferometry was employed to determine the equilibrium dissociation constant (KD) for compounds binding to KDM4A, using a BLI Octet RED96e instrument (Fortebio–Sartorius). Biotinylated KDM4A samples (20 μg/ml) in 10 mM Hepes, pH = 7.5, 150 mM NaCl, 0.5 mM TCEP, 5% glycerol, and 5% DMSO, were loaded onto super streptavidin (SSA) coated biosensors for at least 500 s to saturate the sensors, and then quenched with 10 µg/ml of biocytin for 60 s. Loaded SSA biosensors were then equilibrated in buffer for at least 600 s prior to baseline collection. Association was followed for at least 120 s or until plateau was reached, in a concentration range of 15.6–500 nM for the positive control, and of 3–200 µM for the negative control, and compound 1 and its analogues. Dissociation was followed for at least 300 s. All steps were performed at 25 °C with an agitation speed of 1000 rpm. QC6352 inhibitor [52] and N-[(2-chloro-6-fluorophenyl)methyl]-2-(2,5-dioxo-4-phenyl-4-propylimidazolidin-1-yl)-N-methylacetamide were used as positive and negative control, respectively. Two or three independent experiments were performed for each tested compound.
KD values were estimated by globally fitting the BLI response intensity (nm) as a function of compound concentration (μM) with the Octet Data Analysis Software, using a 1:1 Langmuir binding model.
Biotinylated KDM4A was obtained as follows. 17 nmol of purified recombinant KDM4A was mixed with 17 nmol of NHS-PEG4-Biotin (ThermoFisher Scientific 21,330) in 10 mM Hepes, pH = 7.5, 150 mM NaCl, 0.5 mM TCEP, 5% Glycerol. The solution was incubated at 4 °C for 2 h. Excess biotin was removed by 2 ml Zeba™ Spin Desalting Columns (7 K MWCO).
Background: Biolayer interferometry detects binding as a change in optical thickness at a sensor tip.

Series [3] has as its target T1, KDM4A. Kind of series: STD-NMR binding experiment. As to conditions: 1:50 receptor-to-ligand ratio, 7.5 µM KDM4A. As for the experimental part: as §1
STD-NMR experiments STD-NMR spectra were recorded at 800 MHz on Bruker spectrometer and 298 K in 20 mM NaPh, pH = 7.5, 150 mM NaCl, 0.5 mM TCEP, 8% D2O, using 7.5 µM of KDM4A and 20- or 50-fold excess of each compound. A series of Gaussian-shaped pulses of 0.025 s each was employed with a total saturation time for the protein envelope of 2 s. Off-resonance frequency of d = − 40 ppm and on-resonance frequency of d = 0.07 ppm (protein aliphatic signals region) were applied. Spectra were processed and analyzed using Bruker TopSpin software.
Suppl. Fig. S5: STD-NMR analysis of compound 1. […] (i) The 1D NMR reference spectrum of compound 1. (ii) The STD-NMR spectrum of compound 1 in the presence of KDM4A. The NMR spectrum was recorded at 1:50 receptor-to-ligand ratio.

Substrate in series [4]: O=C(O)CCC(=O)C(=O)O
In words: purified protein, by the assay type. As to conditions: other: 2-OG titrated 50 µM to 0.01 µM, Michaelis-Menten plot.

Seven molecules from PMC10740270, “In-silico guided chemical exploration of KDM4A fragments hits” (Clinical Epigenetics, 2023) can be followed below.

Several values for one entry are separate records, joined by “and”; a condition that tells them apart may be missing. Identical values can stand only once. Bounds are passed on as bounds.

A word on the inhibition: it is the percentage by which the read-out fell short of the control. By Kd is commonly meant a measure of binding affinity in units of concentration. High values mean a looser complex, low ones a tighter complex. On to `O=C(O)c1ccnc(C(=O)NCc2ccccc2)c1` [Compound 6a, 2-(benzylcarbamoyl)isonicotinic acid], for which the inhibition at 50 µM on KDM4A [1] is < 50%. On KDM4A [2], this molecule came in with a Kd of 45 ± 1 µM, an LE of 0.33 and an LLE of 2.49.

By IC50 is commonly meant the concentration at which inhibition is half-maximal. `CCCNC(=O)c1cc(C(=O)O)ccn1` [Compound 6c, 2-(Propylcarbamoyl)isonicotinic acid]: at KDM4A [1], the midpoint of inhibition, the IC50, lay at 41.6 µM and the inhibition at 50 µM was > 90%. At KDM4A [2], the Kd turned out to be 10.7 ± 0.2 µM, the LE was 0.48 and the LLE is 4.18.

As to `COC(=O)c1ccnc(C(=O)NCc2ccccc2)c1` [Compound 5a, Methyl 2-(benzylcarbamoyl)isonicotinate], the inhibition at 50 µM on KDM4A [1] was < 50%.

As for `O=C(O)c1ccnc(C(=O)NCc2cnco2)c1` [Compound 6b, 2-((Oxazol-5-ylmethyl)carbamoyl)isonicotinic acid], at KDM4A [1], the IC50 was 25.1 µM and 25 µM; the inhibition at 50 µM is > 90%. In addition, at KDM4A [2], the Kd worked out at 9.5 ± 0.08 µM, the LE is listed as 0.39 and the LLE was 4.50.

For `COC(=O)c1ccnc(C(=O)NCc2nc3ccccc3n2C)c1` [Compound 5d, Methyl 2-(((1-methyl-1H-benzo[d]imidazole-2-yl)methyl)carbamoyl)isonicotinate], at KDM4A [1], the inhibition at 50 µM is < 50%. In addition, at KDM4A [2], binding was put at a Kd of 55 ± 2 µM, the LE came out at 0.24 and the LLE turned out to be 1.88.

Regarding `CNC(=O)c1cc(C(=O)O)ccn1` [Compound 1, 2-(methylcarbamoyl)isonicotinic acid], the IC50 at KDM4A [1] was 7.09 µM and 7.1 µM. On KDM4A [2], this molecule displayed a Kd of 15 ± 0.16 µM, an LE of 0.51 and an LLE of 4.59. Besides, the “Binding to KDM4A by STD-NMR” value at KDM4A [3] is “detected compound 1 binding to KDM4A”.

B1: KDM4A (Homo sapiens) (protein)
chain: MASESETLNPSARIMTFYPTMEEFRNFSRYIAYIESQGAHRAGLAKVVPPKEWKPRASYDDIDDLVIPAPIQQLVTGQSGLFTQYNIQKKAMTVREFRKIANSDKYCTPRYSEFEELERKYWKNLTFNPPIYGADVNGTLYEKHVDEWNIGRLRTILDLVEKESGITIEGVNTPYLYFGMWKTSFAWHTEDMDLYSINYLHFGEPKSWYSVPPEHGKRLERLAKGFFPGSAQSCEAFLRHKMTLISPLMLKKYGIPFDKVTQEAGEFMITFPYGYHAGFNHGFNCAESTNFATRRWIEYGKQAVLCSCRKDMVKISMDVFVRKFQPERYKLWKAGKDNTVIDHTLPTPEA
Broadly, the Km is the substrate concentration at which the rate is half of its maximum. Consider B1, for which the Km in series [4] is given as 0.73 ± 0.16 µM.
